From ChEMBL document CHEMBL1201862, “PubChem BioAssay data set” (2004)
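Five compound concentrations were applied to cells in 96-well plates for 48 hours; endpoints were derived by simple linear interpolation of the resulting dose-response curve. GI50 = concentration required for 50% inhibition of growth.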 Activity calls are given as the source filed them. Rule as the data show it: active = GI50 up to about 1.1 µM and inactive = higher.

Legend:
Assay in all cases: DTP human tumour cell line panel, 48 h
MDA-MB-435 = tested on: MDA-MB-435
NCI-H460 = tested on: NCI-H460
ACHN = tested on: ACHN
786-0 = tested on: 786-0
Malme-3M = tested on: Malme-3M
PC-3 = tested on: PC-3
SF-539 = tested on: SF-539
NCI-H226 = tested on: NCI-H226
OVCAR-3 = tested on: OVCAR-3
UACC-62 = tested on: UACC-62
DU-145 = tested on: DU-145
M14 = tested on: M14
HCT-15 = tested on: HCT-15
SR = tested on: SR
SF-295 = tested on: SF-295
A498 = tested on: A498
SK-OV-3 = tested on: SK-OV-3
NCI-H23 = tested on: NCI-H23
OVCAR-8 = tested on: OVCAR-8
HT-29 = tested on: HT-29
SN12C = tested on: SN12C
IGROV-1 = tested on: IGROV-1
COLO 205 = tested on: COLO 205
UACC-257 = tested on: UACC-257
MCF7 = tested on: MCF7
SNB-75 = tested on: SNB-75
U-251 = tested on: U-251
MDA-N = tested on: MDA-N
Hs-578T = tested on: Hs-578T
NCI/ADR-RES = tested on: NCI/ADR-RES
HL-60 = tested on: HL-60
SK-MEL-28 = tested on: SK-MEL-28
OVCAR-4 = tested on: OVCAR-4
CAKI-1 = tested on: CAKI-1
HOP-62 = tested on: HOP-62
SW-620 = tested on: SW-620
EKVX = tested on: EKVX
NCI-H522 = tested on: NCI-H522
BT-549 = tested on: BT-549
TK-10 = tested on: TK-10
HOP-92 = tested on: HOP-92
T47D = tested on: T47D
HCT-116 = tested on: HCT-116
KM12 = tested on: KM12
RXF 393 = tested on: RXF 393
OVCAR-5 = tested on: OVCAR-5
SF-268 = tested on: SF-268
MOLT-4 = tested on: MOLT-4
RPMI-8226 = tested on: RPMI-8226
A549 = tested on: A549
SK-MEL-2 = tested on: SK-MEL-2
SK-MEL-5 = tested on: SK-MEL-5
K562 = tested on: K562
LOX IMVI = tested on: LOX IMVI
MDA-MB-231 = tested on: MDA-MB-231
UO-31 = tested on: UO-31
CCRF-CEM = tested on: CCRF-CEM

Measured: GI50

COc1ccc(/C=C/c2cnc3ccccc3n2)cc1OC
inactive: MDA-MB-435 44.1 µM | NCI-H460 30.3 µM | ACHN > 100 µM | 786-0 53.6 µM | Malme-3M 38.2 µM | PC-3 33.1 µM | SF-539 > 100 µM | NCI-H226 > 100 µM | OVCAR-3 93.1 µM | UACC-62 77.3 µM | DU-145 > 100 µM | M14 75.7 µM | SR > 100 µM | SF-295 52.8 µM | A498 45.7 µM | SK-OV-3 75.7 µM | NCI-H23 67.8 µM | OVCAR-8 41.7 µM | HT-29 36.1 µM | SN12C 52.7 µM | IGROV-1 > 100 µM | COLO 205 72.1 µM | UACC-257 > 100 µM | MCF7 54.5 µM | SNB-75 63.8 µM | U-251 80.2 µM | MDA-N 59 µM | Hs-578T 89.3 µM | NCI/ADR-RES 38.2 µM | HL-60 47.2 µM | SK-MEL-28 92.3 µM | OVCAR-4 34.8 µM | CAKI-1 74.3 µM | HOP-62 68.1 µM | SW-620 > 100 µM | EKVX 63.1 µM | NCI-H522 24.1 µM | BT-549 57.1 µM | TK-10 > 100 µM | HOP-92 94.8 µM | T47D 31 µM | HCT-116 47.2 µM | KM12 47.8 µM | RXF 393 > 100 µM | OVCAR-5 > 100 µM | SF-268 > 100 µM | MOLT-4 > 100 µM | RPMI-8226 71.6 µM | A549 42.6 µM | SK-MEL-2 92.7 µM | SK-MEL-5 49.3 µM | K562 44.5 µM | LOX IMVI 83.8 µM | MDA-MB-231 99.8 µM | UO-31 34.7 µM | CCRF-CEM > 100 µM
37 µM: HCT-15
